# Results as given in ChEMBL document CHEMBL1139487, “Discovery of corticotropin releasing factor 2 receptor selective sauvagine analogues for treatment of skeletal muscle atrophy” (J Med Chem, 2005).
# Columns and labels:
# [1] = species: Mus musculus; assay: Selectivity ratio of EC50s for mouse corticotropin releasing factor receptors 1 and 2
# [2] = biological target: T1, Corticotropin-releasing factor receptor 1 (Mus musculus) (UniProt P35347); assay: In vitro agonistic activity against mouse corticotropin releasing factor 1 receptor; assay type: functional
# T1 sequence (whole entry): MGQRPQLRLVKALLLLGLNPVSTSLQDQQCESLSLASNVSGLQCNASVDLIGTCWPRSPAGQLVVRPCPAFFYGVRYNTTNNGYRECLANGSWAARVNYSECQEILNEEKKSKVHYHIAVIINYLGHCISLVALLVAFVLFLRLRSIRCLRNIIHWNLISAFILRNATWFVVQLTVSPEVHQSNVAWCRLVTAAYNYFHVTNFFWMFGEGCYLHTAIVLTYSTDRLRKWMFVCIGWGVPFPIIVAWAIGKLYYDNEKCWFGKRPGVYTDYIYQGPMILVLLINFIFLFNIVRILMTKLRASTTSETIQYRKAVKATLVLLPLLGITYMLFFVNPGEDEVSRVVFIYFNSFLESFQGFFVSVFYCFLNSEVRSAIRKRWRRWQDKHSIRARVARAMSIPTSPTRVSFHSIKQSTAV
# [3] = biological target: Corticotropin-releasing factor receptor 2 (Mus musculus) (UniProt Q60748); assay: In vitro agonistic activity against mouse corticotropin releasing factor 2 receptor; assay type: functional
# Sequence of Corticotropin-releasing factor receptor 2 (Mus musculus) (Q60748 whole entry): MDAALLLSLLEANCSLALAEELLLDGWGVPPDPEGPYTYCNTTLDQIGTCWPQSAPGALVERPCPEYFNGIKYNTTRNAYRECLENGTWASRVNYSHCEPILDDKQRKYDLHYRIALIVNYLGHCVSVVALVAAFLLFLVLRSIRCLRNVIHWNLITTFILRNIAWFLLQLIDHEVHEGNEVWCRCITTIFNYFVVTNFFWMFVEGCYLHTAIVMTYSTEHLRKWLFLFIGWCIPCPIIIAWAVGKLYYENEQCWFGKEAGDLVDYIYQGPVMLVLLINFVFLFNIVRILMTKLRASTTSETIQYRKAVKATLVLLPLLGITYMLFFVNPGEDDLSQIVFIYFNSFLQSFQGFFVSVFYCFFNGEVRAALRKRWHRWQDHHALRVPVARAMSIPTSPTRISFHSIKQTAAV
SMILES,Selectivity [1],Emax [2] [%],Emax [3] [%]
CC[C@H](C)[C@H](NC(=O)[C@@H](NC(=O)[C@H](CC(=O)O)NC(=O)[C@H](CC(C)C)NC(=O)[C@H](CC(C)C)NC(=O)[C@H](CC(C)C)NC(=O)[C@H](CCCN=C(N)N)NC(=O)[C@H](CC(N)=O)NC(=O)[C@H](CC(N)=O)NC(=O)[C@H](C)NC(=O)[C@H](C)NC(=O)[C@H](CCC(N)=O)NC(=O)[C@H](CCC(N)=O)NC(=O)[C@H](CCCCN)NC(=O)[C@H](CCC(=O)O)NC(=O)[C@H](CCCCN)NC(=O)[C@H](CCC(=O)O)NC(=O)[C@H](CCC(N)=O)NC(=O)[C@H](CCCCN)NC(=O)[C@H](CCC(=O)O)NC(=O)[C@@H](NC(=O)[C@H](CCC(=O)O)NC(=O)[C@@H](NC(=O)[C@H](CCSC)NC(=O)[C@H](CCCCN)NC(=O)[C@H](CCCN=C(N)N)NC(=O)[C@H](CC(C)C)NC(=O)[C@H](CC(C)C)NC(=O)[C@H](CC(C)C)NC(=O)[C@H](CC(C)C)NC(=O)[C@@H]1CCCN1C(=O)[C@H](CC(C)C)NC(=O)[C@H](CC(=O)O)NC(=O)[C@@H](NC(=O)[C@H](CO)NC(=O)[C@@H](NC(=O)[C@@H]1CCCN1C(=O)[C@@H]1CCCN1C(=O)CNC(=O)[C@@H]1CCC(=O)N1)[C@@H](C)CC)[C@@H](C)CC)[C@@H](C)CC)[C@@H](C)CC)[C@@H](C)O)C(=O)O,22,96,100
CC[C@H](C)[C@H](NC(=O)[C@@H](NC(=O)[C@H](CC(=O)O)NC(=O)[C@H](CC(C)C)NC(=O)[C@H](CC(C)C)NC(=O)[C@H](CC(C)C)NC(=O)[C@H](CCCN=C(N)N)NC(=O)[C@H](CC(N)=O)NC(=O)[C@H](CC(N)=O)NC(=O)[C@H](C)NC(=O)[C@H](C)NC(=O)[C@H](CCC(N)=O)NC(=O)[C@H](CCC(N)=O)NC(=O)[C@H](CCCCN)NC(=O)[C@H](CCC(=O)O)NC(=O)[C@H](CCCCN)NC(=O)[C@H](CCC(=O)O)NC(=O)[C@H](CCC(N)=O)NC(=O)[C@H](CCCCN)NC(=O)[C@H](CCC(=O)O)NC(=O)[C@@H](NC(=O)[C@H](CCC(=O)O)NC(=O)[C@@H](NC(=O)[C@H](CCSC)NC(=O)[C@H](CCCCN)NC(=O)[C@H](CCCN=C(N)N)NC(=O)[C@H](CC(C)C)NC(=O)[C@H](CC(C)C)NC(=O)[C@H](CCC(=O)O)NC(=O)[C@H](CC(C)C)NC(=O)[C@@H]1CCCN1C(=O)[C@H](CC(C)C)NC(=O)[C@H](CC(=O)O)NC(=O)[C@@H](NC(=O)[C@H](CO)NC(=O)[C@@H](NC(=O)[C@@H]1CCCN1C(=O)[C@@H]1CCCN1C(=O)CNC(=O)[C@@H]1CCC(=O)N1)[C@@H](C)CC)[C@@H](C)CC)[C@@H](C)CC)[C@@H](C)CC)[C@@H](C)O)C(=O)O,9,99,95
CC[C@H](C)[C@H](NC(=O)[C@@H](NC(=O)[C@H](CC(=O)O)NC(=O)[C@H](CC(C)C)NC(=O)[C@H](CC(C)C)NC(=O)[C@H](CC(C)C)NC(=O)[C@H](CCCN=C(N)N)NC(=O)[C@H](CC(N)=O)NC(=O)[C@H](CC(N)=O)NC(=O)[C@H](C)NC(=O)[C@H](C)NC(=O)[C@H](CCC(N)=O)NC(=O)[C@H](CCC(N)=O)NC(=O)[C@H](CCCCN)NC(=O)[C@H](CCC(=O)O)NC(=O)[C@H](CCCCN)NC(=O)[C@H](CCC(=O)O)NC(=O)[C@H](CCC(N)=O)NC(=O)[C@H](CCCCN)NC(=O)[C@H](CCC(=O)O)NC(=O)[C@@H](NC(=O)[C@H](CCC(=O)O)NC(=O)[C@@H](NC(=O)[C@H](CCSC)NC(=O)[C@H](CCCCN)NC(=O)[C@H](CCCN=C(N)N)NC(=O)[C@H](CC(C)C)NC(=O)[C@H](CC(C)C)NC(=O)[C@H](Cc1ccccc1)NC(=O)[C@H](Cc1ccc(O)cc1)NC(=O)[C@@H]1CCCN1C(=O)[C@H](CC(C)C)NC(=O)[C@H](CC(=O)O)NC(=O)[C@@H](NC(=O)[C@H](CO)NC(=O)[C@@H](NC(=O)[C@@H]1CCCN1C(=O)[C@@H]1CCCN1C(=O)CNC(=O)[C@@H]1CCC(=O)N1)[C@@H](C)CC)[C@@H](C)CC)[C@@H](C)CC)[C@@H](C)CC)[C@@H](C)O)C(=O)O,16,81,98

# Now from value to compound:
Selectivity [1],Emax [2] [%],Emax [3] [%],SMILES
30,100,96,CC[C@H](C)[C@H](NC(=O)[C@@H](NC(=O)[C@H](CC(=O)O)NC(=O)[C@H](CC(C)C)NC(=O)[C@H](CC(C)C)NC(=O)[C@H](CC(C)C)NC(=O)[C@H](CCCN=C(N)N)NC(=O)[C@H](CC(N)=O)NC(=O)[C@H](CC(N)=O)NC(=O)[C@H](C)NC(=O)[C@H](C)NC(=O)[C@H](CCC(N)=O)NC(=O)[C@H](CCC(N)=O)NC(=O)[C@H](CCCCN)NC(=O)[C@H](CCC(=O)O)NC(=O)[C@H](CCCCN)NC(=O)[C@H](CCC(=O)O)NC(=O)[C@H](CCC(N)=O)NC(=O)[C@H](CCCCN)NC(=O)[C@H](CCC(=O)O)NC(=O)[C@@H](NC(=O)[C@H](CCC(=O)O)NC(=O)[C@@H](NC(=O)[C@H](CCSC)NC(=O)[C@H](CCCCN)NC(=O)[C@H](CCCN=C(N)N)NC(=O)[C@H](CC(C)C)NC(=O)[C@H](CC(C)C)NC(=O)[C@H](Cc1ccc(O)cc1)NC(=O)[C@H](CCC(N)=O)NC(=O)[C@@H]1CCCN1C(=O)[C@H](CC(C)C)NC(=O)[C@H](CC(=O)O)NC(=O)[C@@H](NC(=O)[C@H](CO)NC(=O)[C@@H](NC(=O)[C@@H]1CCCN1C(=O)[C@@H]1CCCN1C(=O)CNC(=O)[C@@H]1CCC(=O)N1)[C@@H](C)CC)[C@@H](C)CC)[C@@H](C)CC)[C@@H](C)CC)[C@@H](C)O)C(=O)O
15,99,93,CC[C@H](C)[C@H](NC(=O)[C@@H](NC(=O)[C@H](CC(=O)O)NC(=O)[C@H](CC(C)C)NC(=O)[C@H](CC(C)C)NC(=O)[C@H](CC(C)C)NC(=O)[C@H](CCCN=C(N)N)NC(=O)[C@H](CC(N)=O)NC(=O)[C@H](CC(N)=O)NC(=O)[C@H](C)NC(=O)[C@H](C)NC(=O)[C@H](CCC(N)=O)NC(=O)[C@H](CCC(N)=O)NC(=O)[C@H](CCCCN)NC(=O)[C@H](CCC(=O)O)NC(=O)[C@H](CCCCN)NC(=O)[C@H](CCC(=O)O)NC(=O)[C@H](CCC(N)=O)NC(=O)[C@H](CCCCN)NC(=O)[C@H](CCC(=O)O)NC(=O)[C@@H](NC(=O)[C@H](CCC(=O)O)NC(=O)[C@@H](NC(=O)[C@H](CCSC)NC(=O)[C@H](CCCCN)NC(=O)[C@H](CCCN=C(N)N)NC(=O)[C@H](CC(C)C)NC(=O)[C@H](CC(C)C)NC(=O)[C@H](Cc1ccc(O)cc1)NC(=O)[C@H](Cc1ccc(O)cc1)NC(=O)[C@@H]1CCCN1C(=O)[C@H](CC(C)C)NC(=O)[C@H](CC(=O)O)NC(=O)[C@@H](NC(=O)[C@H](CO)NC(=O)[C@@H](NC(=O)[C@@H]1CCCN1C(=O)[C@@H]1CCCN1C(=O)CNC(=O)[C@@H]1CCC(=O)N1)[C@@H](C)CC)[C@@H](C)CC)[C@@H](C)CC)[C@@H](C)CC)[C@@H](C)O)C(=O)O
65,100,88,CC[C@H](C)[C@H](NC(=O)[C@@H](NC(=O)[C@H](CC(=O)O)NC(=O)[C@H](CC(C)C)NC(=O)[C@H](CC(C)C)NC(=O)[C@H](CC(C)C)NC(=O)[C@H](CCCN=C(N)N)NC(=O)[C@H](CC(N)=O)NC(=O)[C@H](CC(N)=O)NC(=O)[C@H](C)NC(=O)[C@H](C)NC(=O)[C@H](CCC(N)=O)NC(=O)[C@H](CCC(N)=O)NC(=O)[C@H](CCCCN)NC(=O)[C@H](CCC(=O)O)NC(=O)[C@H](CCCCN)NC(=O)[C@H](CCC(=O)O)NC(=O)[C@H](CCC(N)=O)NC(=O)[C@H](CCCCN)NC(=O)[C@H](CCC(=O)O)NC(=O)[C@@H](NC(=O)[C@H](CCC(=O)O)NC(=O)[C@@H](NC(=O)[C@H](CCSC)NC(=O)[C@H](CCCCN)NC(=O)[C@H](CCCN=C(N)N)NC(=O)[C@H](CC(C)C)NC(=O)[C@H](CC(C)C)NC(=O)[C@H](CCC(N)=O)NC(=O)[C@H](CC(C)C)NC(=O)[C@@H]1CCCN1C(=O)[C@H](CC(C)C)NC(=O)[C@H](CC(=O)O)NC(=O)[C@@H](NC(=O)[C@H](CO)NC(=O)[C@@H](NC(=O)[C@@H]1CCCN1C(=O)[C@@H]1CCCN1C(=O)CNC(=O)[C@@H]1CCC(=O)N1)[C@@H](C)CC)[C@@H](C)CC)[C@@H](C)CC)[C@@H](C)CC)[C@@H](C)O)C(=O)O
15,86,94,CC[C@H](C)[C@H](NC(=O)[C@@H](NC(=O)[C@H](CC(=O)O)NC(=O)[C@H](CC(C)C)NC(=O)[C@H](CC(C)C)NC(=O)[C@H](CC(C)C)NC(=O)[C@H](CCCN=C(N)N)NC(=O)[C@H](CC(N)=O)NC(=O)[C@H](CC(N)=O)NC(=O)[C@H](C)NC(=O)[C@H](C)NC(=O)[C@H](CCC(N)=O)NC(=O)[C@H](CCC(N)=O)NC(=O)[C@H](CCCCN)NC(=O)[C@H](CCC(=O)O)NC(=O)[C@H](CCCCN)NC(=O)[C@H](CCC(=O)O)NC(=O)[C@H](CCC(N)=O)NC(=O)[C@H](CCCCN)NC(=O)[C@H](CCC(=O)O)NC(=O)[C@@H](NC(=O)[C@H](CCC(=O)O)NC(=O)[C@@H](NC(=O)[C@H](CCSC)NC(=O)[C@H](CCCCN)NC(=O)[C@H](CCCN=C(N)N)NC(=O)[C@H](CC(C)C)NC(=O)[C@H](CC(C)C)NC(=O)[C@H](CC(C)C)NC(=O)[C@H](Cc1ccc(O)cc1)NC(=O)[C@@H]1CCCN1C(=O)[C@H](CC(C)C)NC(=O)[C@H](CC(=O)O)NC(=O)[C@@H](NC(=O)[C@H](CO)NC(=O)[C@@H](NC(=O)[C@@H]1CCCN1C(=O)[C@@H]1CCCN1C(=O)CNC(=O)[C@@H]1CCC(=O)N1)[C@@H](C)CC)[C@@H](C)CC)[C@@H](C)CC)[C@@H](C)CC)[C@@H](C)O)C(=O)O
